Test results: patent US7842685B2, “S1P1 receptor agonists and use thereof” (Amgen Inc., priority 2008, dated 2010)
Counter-ions that a name gives are not always drawn.

Biological target: T1, hS1P1 receptor (Homo sapiens, UniProt P21453)
T1 construct: host or cells: U2OS
Test: hS1P1 receptor internalization assay (cell imaging-based, hS1P1-eGFP U2OS cells)
Conditions: U2OS cell line expressing hS1P1-eGFP, compounds incubated at 37° C. for one hour; for Emax: 1 h, efficacy (Max), read-out: hS1P1 Receptor Internalization (biolimaging) Max (%); for EC50: GFP-containing endosomes per cell (ArrayScan), read-out: hS1P1 Receptor Internalization (bioimaging) EC50 IP
Description: The activity of compounds of the invention was determined by a cell imaging-based assay measuring the degree of hS1P1 receptor internalization and a Ca^2+ mobilization assay measuring the level of S1P receptor activation. The receptor internalization assay was employed to determine the potency and efficacy of compounds on hS1P1 receptor, while Ca^2+ mobilization assay was used to determine selectivity among different S1P receptors and activity on S1P receptors from species such as rat, dog, and cyno. The hS1P1 receptor internalization assay was performed using a U2OS cell line expressing hS1P1-eGFP chimeric protein (Thermo Scientific, Soeborg, Denmark). Upon compound treatment, the hS1P1 receptor was internalized in cytoplasma and formed GFP-containing-endosomes. This event was detected by an automated microscope, ArrayScan (Thermo Scientific Cellomics, Pittsburg), and the degree of receptor internalization is quantitated by counting green fluorescent GFP-containing endosomes per cell. In this assay, hS1P1-eGFP expressing U2OS cells were starved in serum free media for two hours prior to compound treatment. Then compounds were incubated with the starved cells at 37° C. for one hour. Subsequently, compound-treated cells were fixed using 4% formaldehyde, and the nuclei were stained using Hoechst. Then the cells were imaged in ArrayScan. The potency and efficacy of the compounds were determined by plotting the number of green fluorescent GFP-containing endosomes per cell against corresponding compound concentration.

T1 sequence (P21453 whole entry): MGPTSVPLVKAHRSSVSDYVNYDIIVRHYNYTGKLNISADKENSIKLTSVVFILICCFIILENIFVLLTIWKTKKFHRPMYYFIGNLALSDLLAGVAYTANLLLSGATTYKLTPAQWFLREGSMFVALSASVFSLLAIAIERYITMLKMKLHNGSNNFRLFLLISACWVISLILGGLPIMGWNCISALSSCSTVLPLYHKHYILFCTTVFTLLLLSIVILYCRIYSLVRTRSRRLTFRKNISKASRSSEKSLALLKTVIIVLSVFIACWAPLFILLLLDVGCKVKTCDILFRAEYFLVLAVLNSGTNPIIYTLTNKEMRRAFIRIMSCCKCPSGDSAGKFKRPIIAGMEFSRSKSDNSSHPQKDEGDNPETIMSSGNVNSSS

| SMILES | Emax [%] | EC50 [nM] |
| --- | --- | --- |
| NC(CO)(CCc1ccc(-c2nc3ccc(C4(c5ccccc5)CC4)nc3s2)c(F)c1)COP(=O)(O)O (racemic) [Example 43, (rac)-2-amino-4-(3-fluoro-4-(5-(1-phenylcyclopropyl)thiazolo[5,4-b]pyridine-2-yl)phenyl)-2-(hydroxymethyl)butyl dihydrogen phosphate] | 122 | 0.3 |
| O=C(O)C1CN(Cc2ccc(-c3nc4ccc(C5(c6ccccc6)CC5)nc4s3)c(F)c2)C1 [Example 1, 1-((3-fluoro-4-(5-(1-phenylcyclopropyl)thiazolo[5,4-b]pyridin-2-yl)-phenyl)methyl)azetidine-3-carboxylic acid] | 98 | 2.5 |
| O=C(O)C1(F)CN(Cc2ccc(-c3nc4ccc(C5(c6ccccc6)CC5)nc4s3)c(F)c2)C1 [Example 4, 3-fluoro-1-((3-fluoro-4-(5-(1-phenylcyclopropyl)thiazolo[5,4-b]pyridine-2-yl)phenyl)methyl)azetidine-3-carboxylic acid hydrochloride] | 121 | 1.2 |
| O=C(O)C1CN(Cc2ccc(-c3nc4ccc(C5(c6ccccc6)CC=CC5)nc4s3)c(F)c2)C1 [Example 5, 1-((3-fluoro-4-(5-(1-phenylcyclopent-3-enyl)thiazolo[5,4-b]pyridine-2-yl)phenyl)methyl)azetidine-3-carboxylic acid] | 90 | 130 |
| O=C(O)C1CN(Cc2ccc(-c3nc4ccc(C5(c6ccccc6)CCCCC5)nc4s3)c(F)c2)C1 [Example 7, 1-((3-fluoro-4-(5-(1-phenylcyclohexyl)thiazolo[5,4-b]pyridine-2-yl)-phenyl)methyl)azetidine-3-carboxylic acid] | 108 | 32.6 |
| O=C(O)C1CN(Cc2ccc(-c3nc4ccc(C5(c6ccccc6)CCO5)nc4s3)c(F)c2)C1 (centres unmarked) [Example 9, 1-((3-fluoro-4-(5-(2-phenyloxetan-2-yl)thiazolo[5,4-b]pyridine-2-yl)-phenyl)methyl)azetidine-3-carboxylic acid] | 144 | 28.6 |
| O=C(O)C1CN(Cc2ccc(-c3nc4ccc(C5(c6ccccc6)CC5)cc4s3)c(F)c2)C1 [Example 10, 1-((3-fluoro-4-(6-(1-phenylcyclopropyl)benzo[d]thiazol-2-yl)phenyl)-methyl)azetidine-3-carboxylic acid hydrochloride] | 97 | 42 |
| O=C(O)CCNCc1ccc(-c2nc3ccc(C4(c5ccccc5)CC4)nc3s2)c(F)c1 [Example 12, 3-((3-fluoro-4-(5-(1-phenylcyclopropyl)thiazolo[5,4-b]pyridine-2-yl)-phenyl)methylamino)propanoic acid hydrochloride] | 101 | 2 |
| O=C(O)CCNC(=O)c1ccc(-c2nc3ccc(C4(c5ccccc5)CC4)nc3s2)c(F)c1 [Example 14, 3-(3-fluoro-4-(5-(1-phenylcyclopropyl)thiazolo[5,4-b]pyridine-2-yl)-benzamido)propanoic acid] | 66 | 20.6 |
| Cc1cc(-c2nc3ccc(C4(c5ccccc5)CC4)nc3s2)cc(C)c1CN1CC(C(=O)O)C1 [Example 17, 1-((2,6-dimethyl-4-(5-(1-phenylcyclopropyl)thiazolo[5,4-b]-pyridin-2-yl)phenyl)methyl)azetidine-3-carboxylic acid] | 148 | 21 |
| Cc1cc(CN2CC(C(=O)O)C2)ccc1-c1nc2ccc(C3(c4ccccc4)CC3)nc2s1 [Example 19, 1-((3-methyl-4-(5-(1-phenylcyclopropyl)thiazolo[5,4-b]pyridine-2-yl)phenyl)methyl)azetidine-3-carboxylic acid] | 121 | 1.4 |
| NC1(c2ccc(-c3nc4ccc(C5(c6ccccc6)CC5)nc4s3)c(F)c2)CC1 [Example 20, 1-(3-fluoro-4-(5-(1-phenylcyclopropyl)thiazolo[5,4-b]pyridine-2-yl)phenyl)cyclopropanamine] | 160 | 31.2 |
| CC(C)(N)c1ccc(-c2nc3ccc(C4(c5ccccc5)CC4)nc3s2)c(F)c1 [Example 22, 2-(3-fluoro-4-(5-(1-phenylcyclopropyl)thiazolo[5,4-b]pyridine-2-yl)phenyl)-propan-2-amine] | 157 | 192 |
| O=C(O)CCc1ccc(-c2nc3ccc(C4(c5ccccc5)CC4)nc3s2)c(F)c1 [Example 27, 3-(3-fluoro-4-(5-(1-phenylcyclopropyl)thiazolo[5,4-b]pyridine-2-yl)-phenyl)propanoic acid] | 81 | 5880 |
| OCC(CO)Cc1ccc(-c2nc3ccc(C4(c5ccccc5)CC4)nc3s2)c(F)c1 [Example 29, 2-(3-fluoro-4-(5-(1-phenylcyclopropyl)thiazolo[5,4-b]pyridine-2-yl)benzyl)propane-1,3-diol] | 91 | 334 |
| O=C(O)C1(C(=O)O)CC(Cc2ccc(-c3nc4ccc(C5(c6ccccc6)CC5)nc4s3)c(F)c2)C1 [Example 30, 3-(3-fluoro-4-(5-(1-phenylcyclopropyl)thiazolo[5,4-b]pyridine-2-yl)benzyl)cyclobutane-1,1-dicarboxylic acid] | 79 | 2910 |
| OC1CN(Cc2ccc(-c3nc4ccc(C5(c6ccccc6)CC5)nc4s3)c(F)c2)C1 [Example 35, 1-(3-fluoro-4-(5-(1-phenylcyclopropyl)thiazolo[5,4-b]pyridin-2-yl)benzyl)-azetidin-3-ol] | 90 | 18.7 |
| O=C(O)C1CN(Cc2ccc(-c3nc4ccc(C5(c6ccccc6F)CC5)nc4s3)c(F)c2)C1 [Example 38, 1-(3-fluoro-4-(5-(1-(2-fluorophenyl)cyclopropyl)thiazolo[5,4-b]pyridine-2-yl)-benzyl)azetidine-3-carboxylic acid] | 111 | 3.7 |
| O=C(O)C1CN(Cc2ccc(-c3nc4ccc(C5(c6ccc(O)cc6)CC5)nc4s3)c(F)c2)C1 [Example 39, 1-(3-fluoro-4-(5-(1-(4-hydroxyphenyl)cyclopropyl)thiazolo[5,4-b]pyridine-2-yl)benzyl)azetidine-3-carboxylic acid] | 83 | 21.2 |
| NC(CO)(CO)CCc1ccc(-c2nc3ccc(C4(c5ccccc5)CC4)nc3s2)c(F)c1 [Example 42, 2-amino-2-(3-fluoro-4-(5-(1-phenylcyclopropyl)thiazolo[5,4-b]pyridin-2-yl)phenethyl)propane-1,3-diol hydrochloride] | 119 | 10.2 |
| O=C(O)C1CN(Cc2ccc(-c3nc4nc(C5(c6ccccc6)CC5)ccc4s3)c(F)c2)C1 [Example 44, 1-(3-fluoro-4-(5-(1-phenylcyclopropyl)thiazolo[4,5-b]pyridin-2-yl)-benzyl)azetidine-3-carboxylic acid trifluoroacetic acid salt] | 113 | 59.7 |
| O=C(O)C1CN(Cc2ccc(-c3nc4cnc(C5(c6ccccc6)CC5)cc4s3)c(F)c2)C1 [Example 45, 1-(3-fluoro-4-(6-(1-phenylcyclopropyl)thiazolo[4,5-c]pyridine-2-yl)benzyl)azetidine-3-carboxylic acid trifluoroacetic acid salt] | 103 | 99.7 |
| Nc1cc(CN2CC(C(=O)O)C2)ccc1-c1nc2ccc(C3(c4ccccc4)CC3)nc2s1 [Example 46, 1-(3-amino-4-(5-(1-phenylcyclopropyl)thiazolo[5,4-b]pyridin-2-yl)benzyl)azetidine-3-carboxylic acid] | 99 | 4.8 |
| O=C(O)C1CN(Cc2ccc(-c3nc4ccc(C5(C6CCCCC6)CC5)nc4s3)c(F)c2)C1 [Example 47, 1-(4-(5-(1-cyclohexylcyclopropyl)thiazolo[5,4-b]pyridine-2-yl)-3-fluorobenzyl)azetidine-3-carboxylic acid trifluoroacetic acid salt] | 117 | 5.9 |
| O=C(O)C1CN(Cc2ccc(-c3nc4ccc(C5(C6CCOCC6)CC5)nc4s3)c(F)c2)C1 [Example 52, 1-(3-fluoro-4-(5-(1-(tetrahydro-2H-pyran-4-yl)cyclopropyl)thiazolo[5,4-b]pyridine-2-yl)benzyl)azetidine-3-carboxylic acid trifluoroacetic acid salt] | 109 | 1190 |
| O=C(O)[C@@H]1C[C@H](c2ccc(-c3nc4ccc(C5(c6ccccc6)CC5)nc4s3)c(F)c2)CN1 [Example 54, (2S,4R)-4-(3-fluoro-4-(5-(1-phenylcyclopropyl)thiazolo[5,4-b]pyridine-2-yl)phenyl)pyrrolidine-2-carboxylic acid trifluoroacetic acid salt] | 126 | 4.5 |
| O=C(O)C(=O)NCCc1ccc(-c2nc3ccc(C4(c5ccccc5)CC4)nc3s2)c(F)c1 [Example 57, ((2-(3-fluoro-4-(5-(1-phenylcyclopropyl)[1,3]thiazolo[5,4-b]pyridin-2-yl)phenyl)ethyl)amino)(oxo)acetic acid] | 107 | 35.5 |
| Fc1cc(CCNCc2ccccc2)ccc1-c1nc2ccc(C3(c4ccccc4)CC3)nc2s1 [Example 60, N-benzyl-2-(3-fluoro-4-(5-(1-phenylcyclopropyl)[1,3]thiazolo[5,4-b]pyridin-2-yl)phenyl)ethanamine] | 162 | 721 |
